Strand notation (5' to 3'): a small letter for the sugar, then the base; units joined by * are phosphorothioate-linked, units joined directly phosphodiester-linked; [ ] holds rarer units or linkages, { } end groups; capitals alone tell only the bases. k = constrained ethyl (cEt); [5mC] = 5-methylcytosine; d = 2'-deoxy (DNA)
Tests used:
[1] = Tolerability in CD-1 mice, plasma chemistry markers (Example 19); type: in vivo; conditions: male CD-1 mice, 50 mg/kg s.c. twice a week for four weeks (8 treatments), day 26
Procedure: CD-1 mice were treated with modified oligonucleotides selected from studies described above and evaluated for changes in the levels of various plasma chemistry markers.
Groups of four male CD-1 mice at 4-6 weeks of age (obtained from Charles River) were injected subcutaneously twice a week for four weeks (for a total of 8 treatments) with 50 mg/kg of modified oligonucleotides. One group of male CD-1 mice was injected with PBS. Mice were euthanized on day 26 post start of treatment (24 hrs following the final administration).

Yap1 mRNA [2] = experiment: Yap1 mRNA in BICR-22 cells, RNA analysis (Example 35); type: cell-based, human; conditions: free uptake, approximately 48 hours
Procedure: Modified oligonucleotides described in the studies above were tested at various doses in tongue squamous carcinoma (lymph node metastasis) cell line BICR-22. A control oligonucleotide 792169, described herein above, was also tested.
(§1) Cultured BICR-22 cells at a density of 5000 cells per well were treated using free uptake with modified oligonucleotides diluted to concentrations described in the tables below. After approximately 48 hours, Yap1 mRNA levels were measured as previously described using the Human Yap1 primer-probe set RTS4814. Yap1 mRNA levels were normalized to actin-beta content, as measured by primer probe set RTS5002. Results are presented in the tables below as percent control of the amount of Yap1 mRNA relative to untreated control cells (% UTC).

Yap1 mRNA [3] = experiment: Yap1 mRNA in CAL33 cells, RNA analysis (Example 36); type: cell-based, human; conditions: free uptake, approximately 48 hours
Procedure: Modified oligonucleotides described in the studies above were tested at various doses in tongue squamous cell carcinoma line CAL33. A control oligonucleotide 792169, described herein above, was also tested.
as §1, with “CAL33” for “BICR-22”

CAL27 cells = experiment: Cell proliferation assay in CAL27 cells, CellTiter-Glo (Example 37); type: cell-based, human; conditions: free uptake, approximately 144 hours
Procedure: Modified oligonucleotides described in the studies above were tested at various doses in tongue squamous cell carcinoma line CAL27. A control oligonucleotide 792169, described herein above, was also tested.
(§2) Cultured CAL27 cells at a density of 1000 cells/well were treated using free uptake with modified oligonucleotides diluted to concentrations described in the tables below. After approximately 144 hours, cell proliferation was measured using the luminescent cell viability CellTiter-Glo® 2.0 Assay (Promega). Results are presented in the tables below as percent control of the amount of luminescence in samples treated with modified oligonucleotides relative to untreated control cells (% UTC).

SNU-1066 cells = experiment: Cell proliferation assay in SNU-1066 cells, CellTiter-Glo (Example 44); type: cell-based, human; conditions: free uptake, approximately 144 hours
Procedure: Modified oligonucleotides described in the studies above were tested at various doses in laryngeal squamous cell carcinoma line SNU-1066. A control oligonucleotide 792169, described herein above, was also tested.
as §2, with “SNU-1066” for “CAL27”

Yap1 mRNA [4] = experiment: Yap1 mRNA in SNU-1076 cells, RNA analysis (Example 45); type: cell-based, human; conditions: free uptake, approximately 48 hours
Procedure: (§3) Modified oligonucleotides described in the studies above were tested at various doses in upper aerodigestive tract/laryngeal squamous cell carcinoma line SNU-1076. A control oligonucleotide 792169, described herein above, was also tested.
as §1, with “SNU-1076” for “BICR-22”

SNU-1076 cells = experiment: Cell proliferation assay in SNU-1076 cells, CellTiter-Glo (Example 45); type: cell-based, human; conditions: free uptake, approximately 144 hours
Procedure: as §3
as §2, with “SNU-1076” for “CAL27”

Yap1 mRNA [5] = experiment: Yap1 mRNA levels in CAL33 xenograft tumors (Example 29); type: in vivo, human; conditions: CAL33 xenografts, 50 mg/kg twice weekly for two weeks, relative to PBS treated animals
Procedure: A xenograft tumor model was used to evaluate activity of modified oligonucleotides targeted to human Yap1. One million CAL33 cells in 30% matrigel were implanted subcutaneously into the flanks of female CrTac:NCr-Foxnlnu (Taconic) mice. When tumors reached an average volume of 100 mm^3, approximately two weeks post-implantation, groups of eight mice were administered at 50 mg/kg twice weekly with modified oligonucleotides for two weeks. ION 792169 was administered as a control.
Tumor samples were collected for measurement of Yap1 mRNA levels by RT-qPCR. Yap1 mRNA levels were measured as previously described using the Human Yap1 primer-probe set RTS4814. Yap1 mRNA levels were normalized to actin-beta content, as measured by primer probe set RTS5002. Results are presented in the tables below as percent control of the amount of Yap1 mRNA relative to PBS treated animals (% control).

Substance | ALT [1] | AST [1] | BUN [1] | TBIL [1] | human Yap1 mRNA expression (Yap1 mRNA [2]; 0.04 μM) | human Yap1 mRNA expression (Yap1 mRNA [2]; 0.2 μM) | human Yap1 mRNA expression (Yap1 mRNA [2]; 1 μM) | human Yap1 mRNA expression (Yap1 mRNA [2]; 5 μM) | human Yap1 mRNA expression (Yap1 mRNA [3]; 0.04 μM) | human Yap1 mRNA expression (Yap1 mRNA [3]; 0.2 μM) | human Yap1 mRNA expression (Yap1 mRNA [3]; 1 μM) | human Yap1 mRNA expression (Yap1 mRNA [3]; 5 μM) | Antiproliferative effect (cell proliferation, luminescence) (CAL27 cells; 0.08 μM) | Antiproliferative effect (cell proliferation, luminescence) (CAL27 cells; 0.4 μM) | Antiproliferative effect (cell proliferation, luminescence) (CAL27 cells; 2 μM) | Antiproliferative effect (cell proliferation, luminescence) (CAL27 cells; 10 μM) | Antiproliferative effect (cell proliferation, luminescence) (SNU-1066 cells; 0.04 μM) | Antiproliferative effect (cell proliferation, luminescence) (SNU-1066 cells; 0.2 μM) | Antiproliferative effect (cell proliferation, luminescence) (SNU-1066 cells; 1 μM) | Antiproliferative effect (cell proliferation, luminescence) (SNU-1066 cells; 5 μM) | also measured
1198439 (AGTGTATGTCAGAAGA; sugar, 5-methylcytosine, phosphorothioate modifications, further chemistry not given here) [compound 1198439] | 210 U/L | 219 U/L | 18 mg/dL | 0.25 mg/dL |  |  |  |  |  |  |  |  |  |  |  |  |  |  |  |  | 
715487 (kA*kT*kT*dA*d[5mC]*dT*dT*d[5mC]*dA*dT*dA*dG*d[5mC]*kT*kT*kA) [compound 715487] |  |  |  |  | 82 % UTC | 45 % UTC | 23 % UTC | 13 % UTC | 81 % UTC | 41 % UTC | 12 % UTC | 6 % UTC | 95 % UTC | 85 % UTC | 67 % UTC | 33 % UTC | 97 % UTC | 86 % UTC | 72 % UTC | 47 % UTC | human Yap1 mRNA expression (Yap1 mRNA [4]; 0.04 μM): 89 % UTC; human Yap1 mRNA expression (Yap1 mRNA [4]; 0.2 μM): 67 % UTC; human Yap1 mRNA expression (Yap1 mRNA [4]; 1 μM): 31 % UTC; human Yap1 mRNA expression (Yap1 mRNA [4]; 5 μM): 11 % UTC; Antiproliferative effect (cell proliferation, luminescence) (SNU-1076 cells; 0.04 μM): 91 % UTC; Antiproliferative effect (cell proliferation, luminescence) (SNU-1076 cells; 0.2 μM): 90 % UTC; Antiproliferative effect (cell proliferation, luminescence) (SNU-1076 cells; 1 μM): 86 % UTC; Antiproliferative effect (cell proliferation, luminescence) (SNU-1076 cells; 5 μM): 79 % UTC
1198872 (TGTATGTCAGAAGAGT; chemically modified gapmer, further chemistry not given here) [compound 1198872] | 192 U/L | 207 U/L | 22 mg/dL | 0.25 mg/dL |  |  |  |  |  |  |  |  |  |  |  |  |  |  |  |  | 
1198440 (AAGTGTATGTCAGAAG; cEt, 2'-MOE, 5-methylcytosine, phosphorothioate modifications, further chemistry not given here) [compound 1198440] | 121 U/L | 140 U/L | 19 mg/dL | 0.22 mg/dL | 44 % UTC | 14 % UTC | 4 % UTC | 4 % UTC | 43 % UTC | 14 % UTC | 5 % UTC | 5 % UTC | 86 % UTC | 85 % UTC | 83 % UTC | 51 % UTC | 89 % UTC | 66 % UTC | 58 % UTC | 43 % UTC | Yap1 mRNA levels in tumors, % control (Yap1 mRNA [5]): 12 % control; human Yap1 mRNA expression (Yap1 mRNA [4]; 0.04 μM): 83 % UTC; human Yap1 mRNA expression (Yap1 mRNA [4]; 0.2 μM): 43 % UTC; human Yap1 mRNA expression (Yap1 mRNA [4]; 1 μM): 11 % UTC; human Yap1 mRNA expression (Yap1 mRNA [4]; 5 μM): 3 % UTC; Antiproliferative effect (cell proliferation, luminescence) (SNU-1076 cells; 0.04 μM): 99 % UTC; Antiproliferative effect (cell proliferation, luminescence) (SNU-1076 cells; 0.2 μM): 87 % UTC; Antiproliferative effect (cell proliferation, luminescence) (SNU-1076 cells; 1 μM): 81 % UTC; Antiproliferative effect (cell proliferation, luminescence) (SNU-1076 cells; 5 μM): 81 % UTC
CGCCGATAAGGTACAC (cEt gapmer, phosphorothioate backbone, further chemistry not given here) [ION 792169, reference compound] |  |  |  |  | 99 % UTC | 98 % UTC | 98 % UTC | 98 % UTC | 106 % UTC | 106 % UTC | 91 % UTC | 85 % UTC | 96 % UTC | 102 % UTC | 103 % UTC | 90 % UTC | 100 % UTC | 104 % UTC | 102 % UTC | 96 % UTC | Yap1 mRNA levels in tumors, % control (Yap1 mRNA [5]): 74 % control; human Yap1 mRNA expression (Yap1 mRNA [4]; 0.04 μM): 89 % UTC; human Yap1 mRNA expression (Yap1 mRNA [4]; 0.2 μM): 98 % UTC; human Yap1 mRNA expression (Yap1 mRNA [4]; 1 μM): 102 % UTC; human Yap1 mRNA expression (Yap1 mRNA [4]; 5 μM): 107 % UTC; Antiproliferative effect (cell proliferation, luminescence) (SNU-1076 cells; 0.04 μM): 97 % UTC; Antiproliferative effect (cell proliferation, luminescence) (SNU-1076 cells; 0.2 μM): 104 % UTC; Antiproliferative effect (cell proliferation, luminescence) (SNU-1076 cells; 1 μM): 106 % UTC; Antiproliferative effect (cell proliferation, luminescence) (SNU-1076 cells; 5 μM): 108 % UTC
1198728 (TATTAGAGTATGTGGC; modified gapmer, further chemistry not given here) [compound 1198728] |  |  |  |  |  |  |  |  |  |  |  |  |  |  |  |  |  |  |  |  | Yap1 mRNA levels in tumors, % control (Yap1 mRNA [5]): 40 % control

From US11214803B2, “Modulators of YAP1 expression” (Ionis Pharmaceuticals, Inc., priority 2019, dated 2022)
